{"source": "patent US10561143B2", "about": "“Fungicidal composition having synergistic effect” (JIANGSU HUIFENG AGROCHEMICAL CO., LTD., priority 2013, dated 2020)", "key": {"[1]": {"tested_on": "downy mildew pathogens of grape", "experiment": "Toxicity test on downy mildew pathogens of grape (disease index and control effect on whole grape plants, EC50 and co-toxicity coefficient)"}, "[2]": {"tested_on": "late blight pathogens of potato", "experiment": "whole plant or invertebrate", "format": "in vivo"}, "[3]": {"conditions": "Table 6, series with fluopicolide"}, "[4]": {"conditions": "Table 9, series with picoxystrobin"}}, "note": "Like-named read-outs stand apart in the source and are kept apart here.", "data": [{"smiles": "C[C@@]1(c2ccc(Oc3ccccc3)cc2)OC(=O)N(Nc2ccccc2)C1=O", "note": "(racemic) [Famoxadone]", "values": [{"measurement": "EC50", "setting": "[1]", "result": 13.8, "unit": "µg/mL"}]}, {"smiles": "CC(C)OC(=O)N[C@H](C(=O)N[C@H](C)c1nc2ccc(F)cc2s1)C(C)C", "note": "[Benthiavalicarb-isopropyl]", "values": [{"measurement": "EC50", "setting": "[1]", "result": 10.8, "unit": "µg/mL"}, {"measurement": "EC50", "setting": "[2]; Phytophthora infestans", "result": 6.73, "unit": "µg/mL"}]}, {"smiles": "Cl.O=c1[nH]sc2ccccc12", "note": "[Benziothiazolinone hydrochloride]", "values": [{"measurement": "EC50", "setting": "[1]; Table 10, series with fluazinam", "result": 12.87, "unit": "µg/mL"}]}, {"smiles": "O=c1[nH]sc2ccccc12", "note": "[Benziothiazolinone]", "values": [{"measurement": "EC50", "setting": "[1]; Table 1, series with benthiavalicarb-isopropyl", "result": 8.92, "unit": "µg/mL"}, {"measurement": "EC50", "setting": "[1]; Table 2, series with zoxamide", "result": 9.41, "unit": "µg/mL"}, {"measurement": "EC50", "setting": "[1]; Table 3, series with prothioconazole", "result": 10.05, "unit": "µg/mL"}, {"measurement": "EC50", "setting": "[1]; Table 4, series with boscalid", "result": 9.46, "unit": "µg/mL"}, {"measurement": "EC50", "setting": "[1]; Table 5, series with fenamidone", "result": 10.59, "unit": "µg/mL"}, {"measurement": "EC50", "setting": "[1]; [3]", "result": 12.17, "unit": "µg/mL"}, {"measurement": "EC50", "setting": "[1]; Table 7, series with famoxadone", "result": 11.36, "unit": "µg/mL"}, {"measurement": "EC50", "setting": "[1]; Table 8, series with pyraclostrobin", "result": 11.85, "unit": "µg/mL"}, {"measurement": "EC50", "setting": "[1]; [4]", "result": 14.18, "unit": "µg/mL"}, {"measurement": "EC50", "setting": "[2]; Table 11, series with pyraclostrobin", "result": 6.89, "unit": "µg/mL"}, {"measurement": "EC50", "setting": "[2]; Table 12, series with boscalid", "result": 5.58, "unit": "µg/mL"}, {"measurement": "EC50", "setting": "[2]; Table 13, series with benthiavalicarb-isopropyl", "result": 6.22, "unit": "µg/mL"}, {"measurement": "EC50", "setting": "[2]; Table 14, series with zoxamide", "result": 5.89, "unit": "µg/mL"}, {"measurement": "EC50", "setting": "[2]; Table 15, series with fenamidone", "result": 6.12, "unit": "µg/mL"}]}, {"smiles": "O=C(Nc1ccccc1-c1ccc(Cl)cc1)c1cccnc1Cl", "note": "[Boscalid]", "values": [{"measurement": "EC50", "setting": "[1]", "result": 11.6, "unit": "µg/mL"}, {"measurement": "EC50", "setting": "[2]; Phytophthora infestans", "result": 6.31, "unit": "µg/mL"}]}, {"smiles": "CSC1=N[C@@](C)(c2ccccc2)C(=O)N1Nc1ccccc1", "note": "[Fenamidone]", "values": [{"measurement": "EC50", "setting": "[1]", "result": 12.8, "unit": "µg/mL"}, {"measurement": "EC50", "setting": "[2]; Phytophthora infestans", "result": 6.58, "unit": "µg/mL"}]}, {"smiles": "O=[N+]([O-])c1cc(C(F)(F)F)c(Cl)c([N+](=O)[O-])c1Nc1ncc(C(F)(F)F)cc1Cl", "note": "[Fluazinam]", "values": [{"measurement": "EC50", "setting": "[1]", "result": 11.2, "unit": "µg/mL"}]}, {"smiles": "O=C(NCc1ncc(C(F)(F)F)cc1Cl)c1c(Cl)cccc1Cl", "note": "[Fluopicolide]", "values": [{"measurement": "EC50", "setting": "[1]; [3]", "result": 15.32, "unit": "µg/mL"}]}, {"smiles": "CO/C=C(/C(=O)OC)c1ccccc1COc1cccc(C(F)(F)F)n1", "note": "[Picoxystrobin]", "values": [{"measurement": "EC50", "setting": "[1]; [4]", "result": 15.31, "unit": "µg/mL"}]}, {"smiles": "OC(Cc1ccccc1Cl)(Cn1nc[nH]c1=S)C1(Cl)CC1", "note": "(stereo not drawn) [Prothioconazole]", "values": [{"measurement": "EC50", "setting": "[1]", "result": 13.3, "unit": "µg/mL"}]}, {"smiles": "CCC(C)(NC(=O)c1cc(Cl)c(C)c(Cl)c1)C(=O)CCl", "note": "(stereo not drawn) [Zoxamide]", "values": [{"measurement": "EC50", "setting": "[1]", "result": 11.5, "unit": "µg/mL"}, {"measurement": "EC50", "setting": "[2]; Phytophthora infestans", "result": 6.21, "unit": "µg/mL"}]}, {"smiles": "COC(=O)N(OC)c1ccccc1COc1ccn(-c2ccc(Cl)cc2)n1", "note": "[pyraclostrobin]", "values": [{"measurement": "EC50", "setting": "[1]", "result": 10.7, "unit": "µg/mL"}, {"measurement": "EC50", "setting": "[2]; Phytophthora infestans", "result": 5.28, "unit": "µg/mL"}]}]}
